The source of these data is patent publication US6358943B1, “N-substituted indolines as estrogenic agents” (American Home Products Corporation, priority 1999, dated 2002).

In this experiment the target is T1, estrogen receptor (ER) (Homo sapiens, UniProt P03372).
T1 construct: expressed in transfected cells; host or cells: CHO cells (cytosol)
T1 sequence (P03372 1-595): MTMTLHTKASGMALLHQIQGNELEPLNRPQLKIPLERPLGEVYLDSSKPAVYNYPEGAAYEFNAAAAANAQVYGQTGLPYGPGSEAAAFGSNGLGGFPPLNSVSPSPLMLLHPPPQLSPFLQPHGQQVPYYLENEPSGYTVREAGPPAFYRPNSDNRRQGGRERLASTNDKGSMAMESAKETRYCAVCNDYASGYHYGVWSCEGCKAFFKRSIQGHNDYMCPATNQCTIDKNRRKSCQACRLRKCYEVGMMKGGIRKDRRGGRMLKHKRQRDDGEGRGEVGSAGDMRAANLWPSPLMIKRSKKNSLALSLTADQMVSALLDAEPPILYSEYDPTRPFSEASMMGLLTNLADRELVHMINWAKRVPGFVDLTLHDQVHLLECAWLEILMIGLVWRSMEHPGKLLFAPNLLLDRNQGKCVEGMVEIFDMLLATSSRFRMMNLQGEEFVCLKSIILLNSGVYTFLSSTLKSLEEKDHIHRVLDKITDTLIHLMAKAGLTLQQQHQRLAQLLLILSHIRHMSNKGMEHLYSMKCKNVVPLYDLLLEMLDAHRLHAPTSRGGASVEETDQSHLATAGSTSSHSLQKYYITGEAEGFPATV
As to the kind of experiment: Receptor Binding Assay: competition with [3H]17β-estradiol, cytosol of CHO cells overexpressing the estrogen receptor. Conditions: 0.8 nM [3H]17β-estradiol, 12 competitor concentrations, room temperature 2.5 h, CHO cell cytosol.

In turn, `CC1(C)c2cc(O)ccc2N(Cc2ccc(OCCN3CCCCCC3)cc2)C1c1ccc(O)cc1` (stereo not shown) [Example No. 11, 1-[4-(2-Azepan-1-yl-ethoxy)-benzyl]-2-(4-hydroxy-phenyl)-3,3-dimethyl-2,3-dihydro-1H-indol-5-ol] yielded a half-maximal inhibitory concentration (IC50) of 350 nM.

In general, IC50 refers to the concentration that gives 50% inhibition. The low end stands for greater potency, the high end for weaker potency.
